Measured values: patent publication US11752162B2, “Compounds and compositions for treating solid tumors by intratumoral administration” (Novartis AG, priority 2017, dated 2023)

Tests used:
[1] = Extent of Compound 15 binding to Alhydrogel (% bound) in the suspension; format: physicochemical; conditions: for % bound (Compound 15 adsorbed to aluminum hydroxide): 100 mM Tris buffer (pH 7.4)
Protocol: In the preparation of the Compound 15/Alhydrogel® suspension used in the Examples herein, the stock suspension of Alhydrogel® was filtered by gravity filtration through a 100 μm cell strainer before mixing with stock solution comprising Compound 15. The resulting mixture/suspension was stirred for 5 minutes to allow Compound 15 to adsorb/bind to the aluminum of Alhydrogel®.
To determine the extent of Compound 15 binding to Alhydrogel® (i.e. % bound) in the Compound 15/Alhydrogel® suspension used in the Examples herein, aliquots of the suspension were centrifuged to pellet the bound Compound 15/Alhydrogel® (e.g. 21,000×g for 10 min), and the amount of free Compound 15 in the supernatant was analyzed by HPLC/UV or LC/MS/MS.

[2] = Adsorption of compounds to aluminum hydroxide in histidine buffer (pH 6.8); format: physicochemical; conditions: histidine buffer pH 6.8, 0.1 mg/mL compound, 37° C. 5 hours
Protocol: The resulting solution was diluted 10-fold with blank histidine buffer to a final compound concentration of 0.1 mg/mL. Diluted solutions were incubated at 37° C. for 5 hours. The samples were centrifuged at 14,000 rpm for 10 minutes to pellet the insoluble. The supernatant (along with an internal standard) was then evaluated by LC-MS/MS using a ballistic gradient (from 5% CH3CN-0.5% formic acid to 95% CH3CN-1.0% formic acid in 3.5 minutes) on a Waters Atlantis dC18 (50 mm×2.1 mm) column at room temperature against a calibration curve prepared at known compound concentrations ranging from 0.005 to 50 μM. The concentration in the supernatant was calculated as % unbound to aluminum hydroxide compared to control; the % bound to aluminum hydroxide was calculated as 100% minus % unbound.

IP-10 = experiment: Plasma IP-10 profiles in Wistar rats after s.c. injection; format: in vivo, rat; conditions: male Wistar rats
MC38 tumors = experiment: Contralateral MC38 colon cancer model, alone or with checkpoint inhibitors; format: in vivo, mouse; conditions: Compound 15 alone, without aluminum hydroxide, 50 μg i.t.
Protocol: MC38 cells were grown in sterile conditions in a 37° C. incubator with 5% CO2 for two weeks. The cells were cultured in Dulbecco's Modified Eagle's medium (DMEM) media supplemented with 10% FBS, cells were passed every 2-3 days. On the day of injection, cells were harvested (Passage 12) and re-suspended in Hanks' Balanced Salt Solution (HBSS) at a concentration of 2.5×10^6/ml. Cells were Radil tested for mycoplasma and murine viruses.
For each mouse, 0.25×10^6 cells were implanted with subcutaneously injection into right flank using a 28½ g needle ([…]). After the first implantation on day 3 (0.25×10^6) cells are implanted with a subcutaneous injection into left flank using a 28½ g needle (100 μL injection volume). Tumor sizes were assessed three times a week once tumors were palpable. Tumor sizes were determined by using caliper measurements, with tumor volumes calculated using the formula: (Length×Width×Width)/2.
Female C57BL/6 mice bearing the MC38 tumors were randomized into 7 groups (n=9 mice per group) 9 days post tumor cell implantation with an average tumor volume range of 69.09-142.25 mm^3, and the separate groups of tumor bearing mice received treatment as shown in Table 17.
The anti-tumor efficacy of Compound 15 adsorbed to aluminum hydroxide (Alhydrogel®) alone or in combination with checkpoint inhibitors, was determined using a contralateral MC38 colon cancer model. The tumor volume was obtained after two weekly intratumoral injections of Compound 15 adsorbed to aluminum hydroxide (50 μg each) either alone (Group 2), in a double combination with intraperitoneal injection (twice weekly) of an anti-PD-L1 antibody (10 mg/kg) (Group 5), in a double combination with intraperitoneal injection (twice weekly) of an anti-CTLA4 antibody (10 mg/kg) (Group 6), or in a triple combination with intraperitoneal injection (twice weekly) of an anti-PD-L1 antibody (10 mg/kg) and with intraperitoneal injection of an anti-CTLA4 antibody (10 mg/kg) (group 7). For comparison, data was obtained after an intraperitoneal injection (twice weekly) of the anti-PD-L1 antibody (10 mg/kg) alone (Group 3) and after an intraperitoneal injection (twice weekly) of the anti-CTLA4 antibody (10 mg/kg) alone (Group 4). The untreated control data was also obtained (Group 1).
The anti-tumor efficacy of Compound 15 alone (without aluminum hydroxide (Alhydrogel®)) or in combination with checkpoint inhibitors was determined using a contralateral MC38 colon cancer model. […] In addition, the anti-tumor efficacy of Compound 15 adsorbed to aluminum hydroxide (Alhydrogel®) alone or in a triple combination with checkpoint inhibitors was determined using a contralateral MC38 colon cancer model. […]

For `Cc1cc(OCCOCCC(F)(F)P(=O)(O)O)ccc1CCc1cnc2c(N)nc3cc(CCC(=O)O)ccc3c2c1` [Compound 15, 3-(5-amino-2-(4-(2-(3,3-difluoro-3-phosphonopropoxy)ethoxy)-2-methylphenethyl)benzo[f][1,7]naphthyridin-8-yl)propanoic acid], which “% bound (Compound 15 adsorbed to aluminum hydroxide)” value ([1]; 50 μg dose formulation, 1:2.5 w/w ratio) is on record?
The value was 91%.

And the “% bound (Compound 15 adsorbed to aluminum hydroxide)” value ([1]; 200 μg dose formulation, 1:2.5 w/w ratio)?
The value was 94%.

And the “% bound (Compound 15 adsorbed to aluminum hydroxide)” value ([1]; 600 μg dose formulation, 1:2.5 w/w ratio)?
Its value is 97%.

And the “% bound (Compound 15 adsorbed to aluminum hydroxide)” value ([1]; 50 kg/50 μg (so in the source) dose formulation, 1:20 w/w ratio)?
The value was 98%.

What about the “% bound (Compound 15 adsorbed to aluminum hydroxide)” value ([1]; 600 kg (so in the source) dose formulation, 1:1.7 w/w ratio) of the same compound?
The value was 98%.

And the “% bound (Compound 15/aluminum hydroxide)” value ([1]; fixed ratio of 1:1.5 w/w, A20 study formulation)?
The value was 97%.

And the “% Bound” value [2]?
Its value is 96.0%.

And the “peak plasma IP-10 levels compared with 600 μg Compound 15/aluminum hydroxide” value (IP-10; 600 μg s.c.)?
The value was “higher peak IP-10 levels with a fast rate of decline”.

What about the “time of maximum plasma IP-10 levels post s.c. injection” value (IP-10; 50 and 600 μg adsorbed, 600 μg free Compound 15) of the same compound?
The value was “around 3 h”.

What about the “difference from the no treatment group, contralateral tumor site” value (MC38 tumors) of the same compound?
The value was “did not show a difference from the no treatment group”.

What about the “difference from the no treatment group, primary injection site” value (MC38 tumors) of the same compound?
The value was “did not show a difference from the no treatment group”.
